# How the values were obtained:
# [1] = Cmax in ICR mouse at 10 mg/kg, po measured upto 24 hrs by LC-MS/MS analysis; assay type: ADME, organism-based; parameters: time < 24 hrs, dose 10 mg/kg, route po; details: in vivo
# LoVo [2] = assay: Antitumor activity against human LoVo cells xenografted in BALB/c mouse assessed as tumor growth inhibition at 50 mg/kg, po bid administered for 21 consecutive days relative to control; assay type: functional; details: 504 h, time 21 day, read-out: TGI
# [3] = Inhibition of DNA-PK (unknown origin); parameters: species or system Homo sapiens
# [4] = Toxicity in po dosed ICR mouse assessed as mortality measured after 14 days; assay type: organism-based; details: in vivo, time 14 day
# [5] = MRT (0 to infinity) in ICR mouse at 1 mg/kg, iv measured upto 24 hrs by LC-MS/MS analysis; assay type: ADME, organism-based; details: in vivo, iv, 1 mg/kg, 24 h
# [6] = Initial plasma concentration in ICR mouse at 1 mg/kg, iv measured upto 24 hrs by LC-MS/MS analysis; assay type: ADME, organism-based
# LoVo [7] = assay: Antiproliferative activity against human LoVo cells incubated for 72 hrs by CCK-8 assay; assay type: functional, cell-based
# [8] = target: Serine/threonine-protein kinase mTOR (Homo sapiens, UniProt P42345); assay: Inhibition of mTOR (unknown origin)
# [9] = MRT (0 to t) in ICR mouse at 10 mg/kg, po measured upto 24 hrs by LC-MS/MS analysis; assay type: ADME, organism-based; details: in vivo
# [10] = Volume of distribution at steady state in ICR mouse at 1 mg/kg, iv measured upto 24 hrs by LC-MS/MS analysis; assay type: ADME, organism-based; details: in vivo, iv, 1 mg/kg, 24 h
# [11] = Clearance in ICR mouse at 1 mg/kg, iv measured upto 24 hrs by LC-MS/MS analysis; assay type: ADME, organism-based; details: in vivo, iv, 1 mg/kg, 24 h
# [12] = Cmax in ICR mouse at 1 mg/kg, iv measured upto 24 hrs by LC-MS/MS analysis; assay type: ADME, organism-based; parameters: time < 24 hrs, dose 1 mg/kg, route iv; details: in vivo
# [13] = Half life in ICR mouse at 1 mg/kg, iv measured upto 24 hrs by LC-MS/MS analysis; assay type: ADME, organism-based; details: in vivo
# [14] = Tmax in ICR mouse at 1 mg/kg, iv measured upto 24 hrs by LC-MS/MS analysis; assay type: ADME, organism-based; details: in vivo
# Cytochrome P450 3A4 = Cytochrome P450 3A4 (Homo sapiens, UniProt P08684); assay: Inhibition of CYP3A4 (unknown origin); assay type: ADME
# Chain of Cytochrome P450 3A4 (P08684 whole entry): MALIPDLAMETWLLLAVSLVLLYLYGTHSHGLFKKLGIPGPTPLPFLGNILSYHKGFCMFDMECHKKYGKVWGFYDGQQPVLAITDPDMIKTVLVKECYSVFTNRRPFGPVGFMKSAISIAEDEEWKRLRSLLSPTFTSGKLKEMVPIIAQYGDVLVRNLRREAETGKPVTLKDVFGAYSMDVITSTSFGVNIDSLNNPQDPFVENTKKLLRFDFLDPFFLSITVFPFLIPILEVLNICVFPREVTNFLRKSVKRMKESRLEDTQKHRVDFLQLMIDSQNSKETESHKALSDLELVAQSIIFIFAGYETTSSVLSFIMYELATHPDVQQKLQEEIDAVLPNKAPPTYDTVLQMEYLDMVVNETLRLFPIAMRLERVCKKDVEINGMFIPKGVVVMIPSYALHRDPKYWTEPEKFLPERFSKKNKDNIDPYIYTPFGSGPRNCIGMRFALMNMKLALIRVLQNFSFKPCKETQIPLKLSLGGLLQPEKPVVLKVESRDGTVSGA
# [15] = Tmax in ICR mouse at 10 mg/kg, po measured upto 24 hrs by LC-MS/MS analysis; assay type: ADME, organism-based; details: in vivo
# [16] = MRT (0 to t) in ICR mouse at 1 mg/kg, iv measured upto 24 hrs by LC-MS/MS analysis; assay type: ADME, organism-based; details: in vivo
# [17] = Half life in ICR mouse at 10 mg/kg, po measured upto 24 hrs by LC-MS/MS analysis; assay type: ADME, organism-based; details: in vivo
# [18] = AUC (0 to infinity) in ICR mouse at 10 mg/kg, po measured upto 24 hrs by LC-MS/MS analysis; assay type: ADME, organism-based; parameters: dose 10 mg/kg, time < 24 hrs, route po; details: in vivo
# [19] = AUC (0 to t) in ICR mouse at 10 mg/kg, po measured upto 24 hrs by LC-MS/MS analysis; assay type: ADME, organism-based; parameters: dose 10 mg/kg, time < 24 hrs, route po; details: in vivo
# HT-29 [20] = assay: Antiproliferative activity against human HT-29 cells in presence of AZD1390 incubated for 72 hrs by CCK-8 assay; assay type: functional, cell-based; details: HT-29, 72 h
# [21] = target: Serine/threonine-protein kinase ATR (Homo sapiens, UniProt Q13535); assay: Inhibition of ATR (unknown origin)
# Chain of Serine/threonine-protein kinase ATR (Q13535 whole entry): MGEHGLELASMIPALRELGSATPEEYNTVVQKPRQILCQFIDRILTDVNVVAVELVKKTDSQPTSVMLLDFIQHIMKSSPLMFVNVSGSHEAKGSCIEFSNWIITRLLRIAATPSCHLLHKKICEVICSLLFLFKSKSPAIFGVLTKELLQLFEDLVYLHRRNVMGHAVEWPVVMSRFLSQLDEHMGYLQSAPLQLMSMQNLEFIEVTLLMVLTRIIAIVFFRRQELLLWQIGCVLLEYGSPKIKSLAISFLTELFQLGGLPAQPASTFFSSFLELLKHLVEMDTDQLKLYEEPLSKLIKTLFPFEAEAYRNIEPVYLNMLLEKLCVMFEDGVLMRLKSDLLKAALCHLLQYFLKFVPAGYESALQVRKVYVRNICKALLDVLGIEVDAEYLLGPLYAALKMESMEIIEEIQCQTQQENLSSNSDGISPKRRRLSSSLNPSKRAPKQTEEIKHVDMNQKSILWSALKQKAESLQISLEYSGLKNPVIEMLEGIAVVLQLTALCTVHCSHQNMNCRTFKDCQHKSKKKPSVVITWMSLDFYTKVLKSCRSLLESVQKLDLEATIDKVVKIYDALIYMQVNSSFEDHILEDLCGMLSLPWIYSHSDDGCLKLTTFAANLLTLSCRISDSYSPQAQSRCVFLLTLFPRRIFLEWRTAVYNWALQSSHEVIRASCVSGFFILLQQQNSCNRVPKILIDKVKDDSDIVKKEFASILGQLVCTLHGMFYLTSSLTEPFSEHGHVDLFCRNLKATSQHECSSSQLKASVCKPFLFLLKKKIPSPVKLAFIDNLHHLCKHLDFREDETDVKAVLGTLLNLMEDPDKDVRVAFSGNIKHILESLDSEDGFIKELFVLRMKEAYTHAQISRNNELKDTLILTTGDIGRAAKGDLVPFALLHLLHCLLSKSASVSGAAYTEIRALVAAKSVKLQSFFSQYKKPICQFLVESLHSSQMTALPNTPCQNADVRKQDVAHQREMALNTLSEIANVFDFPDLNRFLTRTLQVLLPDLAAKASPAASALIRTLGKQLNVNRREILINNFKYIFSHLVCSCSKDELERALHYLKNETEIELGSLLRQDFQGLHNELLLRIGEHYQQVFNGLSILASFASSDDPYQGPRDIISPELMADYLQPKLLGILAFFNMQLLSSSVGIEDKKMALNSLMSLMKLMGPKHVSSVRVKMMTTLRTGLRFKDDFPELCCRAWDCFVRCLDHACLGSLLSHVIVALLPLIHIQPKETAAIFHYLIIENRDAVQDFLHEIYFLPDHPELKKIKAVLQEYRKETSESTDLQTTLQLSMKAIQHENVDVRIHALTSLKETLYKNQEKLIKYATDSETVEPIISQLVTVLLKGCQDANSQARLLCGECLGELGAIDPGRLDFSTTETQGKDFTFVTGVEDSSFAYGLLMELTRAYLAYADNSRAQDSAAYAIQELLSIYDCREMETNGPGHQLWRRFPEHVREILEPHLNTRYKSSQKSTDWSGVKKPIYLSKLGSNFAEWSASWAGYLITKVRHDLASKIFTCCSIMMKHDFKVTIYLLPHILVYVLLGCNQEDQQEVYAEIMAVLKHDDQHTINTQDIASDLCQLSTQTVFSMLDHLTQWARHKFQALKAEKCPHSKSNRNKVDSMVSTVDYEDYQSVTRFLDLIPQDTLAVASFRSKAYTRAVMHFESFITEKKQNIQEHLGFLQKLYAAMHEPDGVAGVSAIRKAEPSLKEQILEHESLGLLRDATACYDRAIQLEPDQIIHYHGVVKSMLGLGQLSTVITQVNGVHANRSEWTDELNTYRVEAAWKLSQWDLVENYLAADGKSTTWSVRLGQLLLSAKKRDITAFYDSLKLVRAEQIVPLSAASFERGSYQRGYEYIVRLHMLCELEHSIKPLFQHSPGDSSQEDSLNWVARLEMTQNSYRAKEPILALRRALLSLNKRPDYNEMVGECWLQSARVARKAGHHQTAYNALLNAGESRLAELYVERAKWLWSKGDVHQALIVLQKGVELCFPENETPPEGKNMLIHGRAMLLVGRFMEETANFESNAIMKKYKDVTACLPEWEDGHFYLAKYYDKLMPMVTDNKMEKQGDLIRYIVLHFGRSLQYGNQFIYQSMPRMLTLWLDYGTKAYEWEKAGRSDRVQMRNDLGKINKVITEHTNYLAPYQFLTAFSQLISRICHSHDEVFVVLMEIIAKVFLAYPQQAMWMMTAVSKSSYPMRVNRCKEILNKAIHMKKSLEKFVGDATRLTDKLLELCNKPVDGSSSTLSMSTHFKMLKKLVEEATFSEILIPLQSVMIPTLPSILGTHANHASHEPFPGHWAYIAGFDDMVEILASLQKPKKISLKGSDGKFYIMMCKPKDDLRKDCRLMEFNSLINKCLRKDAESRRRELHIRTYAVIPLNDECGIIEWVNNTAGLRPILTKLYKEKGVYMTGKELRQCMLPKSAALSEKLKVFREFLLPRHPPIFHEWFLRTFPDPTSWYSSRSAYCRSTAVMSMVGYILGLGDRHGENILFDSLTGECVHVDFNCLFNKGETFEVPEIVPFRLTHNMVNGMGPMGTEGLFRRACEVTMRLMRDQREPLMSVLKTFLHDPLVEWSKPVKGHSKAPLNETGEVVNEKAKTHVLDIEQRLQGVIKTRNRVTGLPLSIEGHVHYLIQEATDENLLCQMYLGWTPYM
# [22] = MRT (0 to infinity) in ICR mouse at 10 mg/kg, po measured upto 24 hrs by LC-MS/MS analysis; assay type: ADME, organism-based; details: in vivo
# [23] = AUC (0 to infinity) in ICR mouse at 1 mg/kg, iv measured upto 24 hrs by LC-MS/MS analysis; assay type: ADME, organism-based; parameters: dose 1 mg/kg, time < 24 hrs, route iv; details: in vivo
# Cytochrome P450 1A2 = target: T1, Cytochrome P450 1A2 (Homo sapiens, UniProt P05177); assay: Inhibition of CYP1A2 (unknown origin); assay type: ADME
# T1 sequence (P05177 whole entry): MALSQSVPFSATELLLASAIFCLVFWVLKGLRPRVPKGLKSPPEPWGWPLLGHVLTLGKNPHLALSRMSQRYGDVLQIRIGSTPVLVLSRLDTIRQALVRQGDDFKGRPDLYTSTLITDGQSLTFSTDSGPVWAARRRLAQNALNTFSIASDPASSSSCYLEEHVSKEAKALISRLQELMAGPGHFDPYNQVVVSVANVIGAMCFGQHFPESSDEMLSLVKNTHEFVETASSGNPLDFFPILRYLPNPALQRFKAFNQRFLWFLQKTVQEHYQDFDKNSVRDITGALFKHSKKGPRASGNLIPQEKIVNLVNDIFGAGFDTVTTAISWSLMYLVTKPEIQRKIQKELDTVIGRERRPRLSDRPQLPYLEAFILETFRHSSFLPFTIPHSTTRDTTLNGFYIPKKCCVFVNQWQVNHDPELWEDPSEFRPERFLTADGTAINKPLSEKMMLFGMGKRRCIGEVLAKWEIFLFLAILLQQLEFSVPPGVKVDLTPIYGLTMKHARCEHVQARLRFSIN
# [24] = Acute toxicity in ICR mouse assessed as mortality at 2000 mg/kg, po measured after 14 days; assay type: organism-based; details: in vivo, 336 h, time 14 day
# [25] = Oral bioavailability in ICR mouse at 10 mg/kg measured upto 24 hrs by LC-MS/MS analysis; assay type: ADME, organism-based; details: in vivo
# [26] = Toxicity in ICR mouse assessed as body weight change at 2000 mg/kg, po measured after 14 days; assay type: organism-based; details: in vivo, 336 h, time 14 day
# [27] = AUC (0 to t) in ICR mouse at 1 mg/kg, iv measured upto 24 hrs by LC-MS/MS analysis; assay type: ADME, organism-based; parameters: dose 1 mg/kg, time < 24 hrs, route iv; details: in vivo
# LoVo [28] = assay: Antitumor activity against human LoVo cells xenografted in BALB/c mouse assessed as tumor growth inhibition at 50 mg/kg, po qd administered for 21 consecutive days relative to control; assay type: functional; details: 504 h, time 21 day, read-out: TGI
# [29] = Toxicity in ICR male mouse assessed as mortality at 2000 mg/kg, po measured after 14 days; assay type: organism-based; details: in vivo, 336 h, time 14 day
# HT-29 [30] = assay: Antiproliferative activity against human HT-29 cells incubated for 72 hrs by CCK-8 assay; assay type: functional, cell-based; details: HT-29, 72 h
structure (smiles),measurement,setting,value
CNc1nc2ccccc2n1-c1nc(N2CCOC[C@H]2C)c2scc(S(C)(=O)=O)c2n1,Cmax,[1],1270 ng/mL
same,inhibition in vivo at 50 mg/kg,LoVo [2],55%
same,IC50,[3],25.3 nM
same,LD50 at 336 h,[4],2000 mg/kg
same,MRT,[5],0.97 h
same,C0 at 24 h,[6],1310 ng/mL
same,IC50,LoVo [7],73 nM
same,IC50,[8],58.8 nM
same,MRT last at 24 h,[9],5.3 h
same,Vdss,[10],2.371 L/kg
same,CL,[11],17.35 mL/min/kg
same,Cmax,[12],1140 ng/mL
same,half-life,[13],1.56 h
same,Tmax,[14],4.8 min
same,inhibition (INH),Cytochrome P450 3A4,Not Active
same,Tmax,[15],0.25 h
same,MRT last at 24 h,[16],0.89 h
same,half-life,[17],5.06 h
same,AUC(0-inf),[18],4420 ng·h/mL
same,AUC(0-t) at 24 h,[19],4300 ng·h/mL
same,IC50,HT-29 [20],3 nM
same,IC50,[21],1.5 nM
same,MRT inf,[22],6.2 h
same,AUC(0-inf),[23],962 ng·h/mL
same,inhibition (INH),Cytochrome P450 1A2,Not Active
same,Activity,[24],Toxic
same,bioavailability,[25],46%
same,Activity,[26],Non-Toxic
same,AUC(0-t) at 24 h,[27],954 ng·h/mL
same,inhibition in vivo at 50 mg/kg,LoVo [28],32%
same,Activity,[29],Toxic
same,IC50,HT-29 [30],161 nM

# — ChEMBL document CHEMBL5321234, “Discovery of Thieno[3,2-d]pyrimidine derivatives as potent and selective inhibitors of ataxia telangiectasia mutated and Rad3 related (ATR) kinase” (Eur J Med Chem, 2023)
